In ChEMBL document CHEMBL5715956, “Selective Targeting of Bromodomains of the Bromodomain-PHD Fingers Family Impairs Osteoclast Differentiation” (ACS Chem Biol, 2017):

Key:
[1] = biological target: Protein polybromo-1 (Homo sapiens) (UniProt Q86U86); details: dose 10.0 µM
[2] = biological target: Histone-lysine N-methyltransferase ASH1L (Homo sapiens) (UniProt Q9NR48); details: dose 10.0 µM
[3] = biological target: T1, Bromodomain-containing protein 1 (Homo sapiens) (UniProt O95696); test: Binding affinity to BRPF2 (unknown origin) assessed as change in gibbs free energy at 12 uM by Isothermal titration calorimetry
T1 sequence (whole entry): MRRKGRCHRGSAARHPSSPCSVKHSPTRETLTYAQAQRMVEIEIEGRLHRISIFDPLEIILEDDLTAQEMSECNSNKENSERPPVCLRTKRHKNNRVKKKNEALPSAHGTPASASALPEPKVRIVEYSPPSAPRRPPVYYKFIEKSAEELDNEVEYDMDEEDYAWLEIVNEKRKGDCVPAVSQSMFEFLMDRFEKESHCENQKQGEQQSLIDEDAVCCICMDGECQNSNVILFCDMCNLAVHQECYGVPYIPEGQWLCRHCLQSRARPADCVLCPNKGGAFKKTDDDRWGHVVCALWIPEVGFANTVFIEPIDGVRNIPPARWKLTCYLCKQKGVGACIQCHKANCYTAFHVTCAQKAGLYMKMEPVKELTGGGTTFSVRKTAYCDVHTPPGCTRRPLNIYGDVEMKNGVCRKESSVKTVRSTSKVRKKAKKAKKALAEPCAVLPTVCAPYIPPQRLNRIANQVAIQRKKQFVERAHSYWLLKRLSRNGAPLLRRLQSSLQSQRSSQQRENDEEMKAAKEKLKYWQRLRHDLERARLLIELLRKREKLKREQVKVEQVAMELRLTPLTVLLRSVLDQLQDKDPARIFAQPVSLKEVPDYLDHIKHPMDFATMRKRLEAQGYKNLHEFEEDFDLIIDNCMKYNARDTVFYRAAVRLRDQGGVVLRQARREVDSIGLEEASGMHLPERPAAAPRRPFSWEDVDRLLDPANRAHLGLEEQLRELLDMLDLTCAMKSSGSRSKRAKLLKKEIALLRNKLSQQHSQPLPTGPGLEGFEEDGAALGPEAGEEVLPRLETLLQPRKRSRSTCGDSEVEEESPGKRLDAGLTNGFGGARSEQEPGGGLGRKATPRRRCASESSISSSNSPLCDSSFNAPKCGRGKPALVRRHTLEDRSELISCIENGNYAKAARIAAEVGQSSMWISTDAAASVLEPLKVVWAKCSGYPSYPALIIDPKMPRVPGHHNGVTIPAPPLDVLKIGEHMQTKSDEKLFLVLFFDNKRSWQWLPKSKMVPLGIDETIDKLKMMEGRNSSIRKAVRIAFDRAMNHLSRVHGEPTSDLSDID

[4] = biological target: T2, Peregrin (Homo sapiens) (UniProt P55201); test: Binding affinity to […] (unknown origin) assessed as change in gibbs free energy at 17 uM by Isothermal titration calorimetry
T2 sequence (whole entry): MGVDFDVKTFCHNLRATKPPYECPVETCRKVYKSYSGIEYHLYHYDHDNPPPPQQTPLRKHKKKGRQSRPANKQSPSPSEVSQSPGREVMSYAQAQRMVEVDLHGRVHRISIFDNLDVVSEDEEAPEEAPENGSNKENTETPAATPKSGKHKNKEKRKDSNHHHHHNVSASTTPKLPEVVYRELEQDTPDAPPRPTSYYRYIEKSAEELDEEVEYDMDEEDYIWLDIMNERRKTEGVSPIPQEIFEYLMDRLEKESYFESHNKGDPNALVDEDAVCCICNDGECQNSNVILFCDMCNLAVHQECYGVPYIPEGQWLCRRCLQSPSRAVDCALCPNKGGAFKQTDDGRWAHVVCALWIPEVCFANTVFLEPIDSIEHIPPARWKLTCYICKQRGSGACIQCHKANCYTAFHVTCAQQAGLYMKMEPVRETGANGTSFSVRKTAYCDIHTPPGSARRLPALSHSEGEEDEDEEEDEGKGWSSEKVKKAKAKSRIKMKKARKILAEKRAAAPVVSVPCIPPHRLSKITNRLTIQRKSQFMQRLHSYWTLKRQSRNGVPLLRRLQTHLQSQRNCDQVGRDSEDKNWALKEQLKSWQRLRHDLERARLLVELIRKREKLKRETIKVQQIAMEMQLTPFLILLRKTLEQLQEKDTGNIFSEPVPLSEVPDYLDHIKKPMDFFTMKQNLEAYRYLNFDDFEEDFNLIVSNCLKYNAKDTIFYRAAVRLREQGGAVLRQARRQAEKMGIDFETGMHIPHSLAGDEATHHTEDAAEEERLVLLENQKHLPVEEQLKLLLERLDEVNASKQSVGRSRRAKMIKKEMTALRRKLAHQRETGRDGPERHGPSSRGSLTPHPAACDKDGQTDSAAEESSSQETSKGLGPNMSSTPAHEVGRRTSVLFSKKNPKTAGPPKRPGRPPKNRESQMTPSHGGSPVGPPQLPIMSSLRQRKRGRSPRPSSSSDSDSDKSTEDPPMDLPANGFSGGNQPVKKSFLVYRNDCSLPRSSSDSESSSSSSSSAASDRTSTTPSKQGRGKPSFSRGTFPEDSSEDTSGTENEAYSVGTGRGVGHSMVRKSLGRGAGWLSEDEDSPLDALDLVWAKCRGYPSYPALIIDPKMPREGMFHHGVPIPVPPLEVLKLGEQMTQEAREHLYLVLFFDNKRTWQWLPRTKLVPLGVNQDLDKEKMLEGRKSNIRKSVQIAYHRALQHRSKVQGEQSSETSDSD

[5] = biological target: T1, Bromodomain-containing protein 1 (Homo sapiens); test: Binding affinity to BRPF2 (unknown origin) assessed as change in entropy at 12 uM by Isothermal titration calorimetry
[6] = biological target: T1, Bromodomain-containing protein 1 (Homo sapiens); test: Binding affinity to BRPF2 (unknown origin) assessed as change in entropy TdeltaS at 12 uM by Isothermal titration calorimetry
[7] = biological target: Tyrosine-protein kinase BAZ1B (Homo sapiens) (UniProt Q9UIG0); details: dose 10.0 µM
[8] = organism: Homo sapiens; details: dose 10.0 µM
[9] = biological target: Transcription intermediary factor 1-alpha (Homo sapiens) (UniProt O15164); details: dose 10.0 µM
[10] = biological target: Bromodomain-containing protein 4 (Homo sapiens) (UniProt O60885); test: Binding affinity to BRD4 BD1 (unknown origin) assessed as change in gibbs free energy at 14 uM by Isothermal titration calorimetry
[11] = biological target: T2, Peregrin (Homo sapiens); details: dose 10.0 µM

Chain of Tyrosine-protein kinase BAZ1B (Homo sapiens) (Q9UIG0 whole entry): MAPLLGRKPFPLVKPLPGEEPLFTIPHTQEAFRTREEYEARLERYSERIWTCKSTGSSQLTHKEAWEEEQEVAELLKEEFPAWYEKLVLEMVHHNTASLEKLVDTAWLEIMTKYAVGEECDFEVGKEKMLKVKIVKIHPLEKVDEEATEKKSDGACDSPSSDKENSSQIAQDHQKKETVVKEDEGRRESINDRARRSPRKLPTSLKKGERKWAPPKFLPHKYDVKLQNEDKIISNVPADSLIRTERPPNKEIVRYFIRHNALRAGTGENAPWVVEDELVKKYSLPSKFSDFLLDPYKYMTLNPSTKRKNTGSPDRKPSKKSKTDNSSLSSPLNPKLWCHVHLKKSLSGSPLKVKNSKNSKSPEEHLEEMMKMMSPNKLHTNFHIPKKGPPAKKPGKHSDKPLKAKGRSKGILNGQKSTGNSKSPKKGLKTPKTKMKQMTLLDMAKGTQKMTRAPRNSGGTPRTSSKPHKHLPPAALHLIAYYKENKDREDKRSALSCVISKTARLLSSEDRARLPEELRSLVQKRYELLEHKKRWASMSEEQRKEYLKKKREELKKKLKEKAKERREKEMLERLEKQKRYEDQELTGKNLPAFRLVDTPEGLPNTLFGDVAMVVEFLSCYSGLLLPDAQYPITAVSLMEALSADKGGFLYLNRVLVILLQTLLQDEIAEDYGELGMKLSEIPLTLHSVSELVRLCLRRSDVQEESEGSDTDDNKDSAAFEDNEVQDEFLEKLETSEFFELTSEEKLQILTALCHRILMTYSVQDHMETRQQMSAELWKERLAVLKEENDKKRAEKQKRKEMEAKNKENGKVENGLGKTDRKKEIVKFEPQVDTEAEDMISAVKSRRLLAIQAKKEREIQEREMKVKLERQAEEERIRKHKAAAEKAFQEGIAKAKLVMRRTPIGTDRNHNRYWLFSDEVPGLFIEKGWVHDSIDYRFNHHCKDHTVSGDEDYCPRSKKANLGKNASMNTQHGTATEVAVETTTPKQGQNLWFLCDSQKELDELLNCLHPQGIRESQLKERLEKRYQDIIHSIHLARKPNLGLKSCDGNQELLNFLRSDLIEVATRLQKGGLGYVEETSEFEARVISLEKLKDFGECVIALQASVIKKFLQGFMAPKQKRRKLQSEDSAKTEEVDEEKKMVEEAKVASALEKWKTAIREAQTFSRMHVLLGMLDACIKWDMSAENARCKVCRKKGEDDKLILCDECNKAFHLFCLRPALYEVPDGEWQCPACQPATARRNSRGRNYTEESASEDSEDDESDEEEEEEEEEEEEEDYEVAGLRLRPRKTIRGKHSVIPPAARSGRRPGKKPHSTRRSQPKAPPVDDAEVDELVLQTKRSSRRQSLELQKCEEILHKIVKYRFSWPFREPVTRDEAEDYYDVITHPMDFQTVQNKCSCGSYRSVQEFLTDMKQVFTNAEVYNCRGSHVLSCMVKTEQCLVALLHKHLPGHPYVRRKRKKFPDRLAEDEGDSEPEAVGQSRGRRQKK
Chain of Protein polybromo-1 (Homo sapiens) (Q86U86 whole entry): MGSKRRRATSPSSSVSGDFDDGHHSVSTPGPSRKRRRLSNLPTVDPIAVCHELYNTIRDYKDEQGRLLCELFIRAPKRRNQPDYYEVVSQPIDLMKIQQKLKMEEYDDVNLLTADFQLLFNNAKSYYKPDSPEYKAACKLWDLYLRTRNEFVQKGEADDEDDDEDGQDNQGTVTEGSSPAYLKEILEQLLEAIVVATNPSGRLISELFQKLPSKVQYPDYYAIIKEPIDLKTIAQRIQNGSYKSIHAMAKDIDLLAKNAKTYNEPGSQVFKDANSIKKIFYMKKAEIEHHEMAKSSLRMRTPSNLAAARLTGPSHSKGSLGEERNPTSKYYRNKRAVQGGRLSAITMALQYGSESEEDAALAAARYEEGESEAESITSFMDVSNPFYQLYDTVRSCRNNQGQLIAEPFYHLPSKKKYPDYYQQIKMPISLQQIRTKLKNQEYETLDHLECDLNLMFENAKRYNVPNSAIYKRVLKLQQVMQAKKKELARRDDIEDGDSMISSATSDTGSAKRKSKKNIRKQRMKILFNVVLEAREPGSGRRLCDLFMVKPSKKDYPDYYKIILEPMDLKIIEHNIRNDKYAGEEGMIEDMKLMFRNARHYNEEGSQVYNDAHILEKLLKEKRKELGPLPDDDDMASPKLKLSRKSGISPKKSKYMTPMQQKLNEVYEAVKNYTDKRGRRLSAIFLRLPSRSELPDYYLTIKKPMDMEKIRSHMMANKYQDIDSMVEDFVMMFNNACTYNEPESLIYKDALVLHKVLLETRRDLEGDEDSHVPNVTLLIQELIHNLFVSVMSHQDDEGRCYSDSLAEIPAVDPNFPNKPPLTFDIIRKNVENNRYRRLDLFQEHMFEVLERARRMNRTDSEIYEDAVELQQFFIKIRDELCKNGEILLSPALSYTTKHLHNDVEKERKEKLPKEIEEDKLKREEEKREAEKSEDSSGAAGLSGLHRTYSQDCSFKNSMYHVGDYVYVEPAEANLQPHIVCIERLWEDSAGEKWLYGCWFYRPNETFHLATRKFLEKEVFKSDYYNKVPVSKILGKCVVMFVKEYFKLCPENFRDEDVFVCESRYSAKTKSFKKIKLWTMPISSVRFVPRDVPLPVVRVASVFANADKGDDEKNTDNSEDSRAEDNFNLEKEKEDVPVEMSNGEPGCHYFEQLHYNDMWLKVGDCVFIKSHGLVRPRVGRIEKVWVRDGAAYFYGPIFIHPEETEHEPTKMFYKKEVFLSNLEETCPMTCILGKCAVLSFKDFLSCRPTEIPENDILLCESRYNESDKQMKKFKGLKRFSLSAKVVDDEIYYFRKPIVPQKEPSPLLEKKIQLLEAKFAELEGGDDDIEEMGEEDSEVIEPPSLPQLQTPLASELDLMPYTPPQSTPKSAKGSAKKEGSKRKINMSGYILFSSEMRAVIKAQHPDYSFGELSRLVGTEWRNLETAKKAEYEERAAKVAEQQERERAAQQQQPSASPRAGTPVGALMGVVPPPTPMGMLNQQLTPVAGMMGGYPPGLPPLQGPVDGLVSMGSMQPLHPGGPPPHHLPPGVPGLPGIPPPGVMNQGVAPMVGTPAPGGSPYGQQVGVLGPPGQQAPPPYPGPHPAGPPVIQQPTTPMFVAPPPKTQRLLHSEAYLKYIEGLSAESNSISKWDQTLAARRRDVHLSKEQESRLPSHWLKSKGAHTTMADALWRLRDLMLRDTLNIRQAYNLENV
Chain of Transcription intermediary factor 1-alpha (Homo sapiens) (O15164 whole entry): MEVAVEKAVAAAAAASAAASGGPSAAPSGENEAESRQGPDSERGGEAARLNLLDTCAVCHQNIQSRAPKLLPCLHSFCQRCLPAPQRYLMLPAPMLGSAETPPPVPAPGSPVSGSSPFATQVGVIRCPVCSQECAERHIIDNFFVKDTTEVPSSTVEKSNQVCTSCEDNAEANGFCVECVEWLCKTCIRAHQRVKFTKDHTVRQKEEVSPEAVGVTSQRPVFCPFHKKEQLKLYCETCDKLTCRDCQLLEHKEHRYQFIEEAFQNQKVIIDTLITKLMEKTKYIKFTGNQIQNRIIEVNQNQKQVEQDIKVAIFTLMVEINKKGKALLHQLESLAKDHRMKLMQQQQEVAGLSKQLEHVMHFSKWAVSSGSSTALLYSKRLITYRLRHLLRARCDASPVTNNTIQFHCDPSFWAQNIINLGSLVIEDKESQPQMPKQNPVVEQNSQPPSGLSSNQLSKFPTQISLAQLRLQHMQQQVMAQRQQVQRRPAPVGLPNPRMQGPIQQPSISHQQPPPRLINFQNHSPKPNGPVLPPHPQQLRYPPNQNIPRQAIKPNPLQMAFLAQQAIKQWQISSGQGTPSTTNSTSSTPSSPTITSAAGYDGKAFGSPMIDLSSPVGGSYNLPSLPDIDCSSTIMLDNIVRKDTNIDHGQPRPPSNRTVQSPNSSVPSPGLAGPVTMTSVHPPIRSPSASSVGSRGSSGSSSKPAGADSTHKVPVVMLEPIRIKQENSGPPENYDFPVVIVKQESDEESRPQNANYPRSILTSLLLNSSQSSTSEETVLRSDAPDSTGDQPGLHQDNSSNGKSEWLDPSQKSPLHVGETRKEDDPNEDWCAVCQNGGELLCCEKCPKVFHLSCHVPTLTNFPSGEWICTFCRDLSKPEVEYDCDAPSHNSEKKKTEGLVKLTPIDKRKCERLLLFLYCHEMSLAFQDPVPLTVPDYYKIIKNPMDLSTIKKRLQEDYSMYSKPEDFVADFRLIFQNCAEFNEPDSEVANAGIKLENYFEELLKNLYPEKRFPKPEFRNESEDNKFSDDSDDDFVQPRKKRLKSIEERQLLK

ΔTm [1]: 0.2 °C
ΔTm [2]: 0.3 °C
deltaG [3]: -8.3 kcal/mol
deltaG [4]: -9.24 kcal/mol
deltaS [5]: -0.004 kcal/mol/K
TdeltaS [6]: -1.2 kcal/mol
ΔTm [7]: 0.3 °C
ΔTm [8]: 0.2 °C
ΔTm [9]: 1.8 °C
deltaG [10]: -7.13 kcal/mol
ΔTm [11]: 6.5 °C
SMILES: COc1cc2c(cc1NS(=O)(=O)c1ccc(Br)cc1C)n(C)c(=O)n2C
